Article PMC6960228, “Ethoxysanguinarine, a Novel Direct Activator of AMP-Activated Protein Kinase, Induces Autophagy and Exhibits Therapeutic Potential in Breast Cancer Cells” (Frontiers in Pharmacology, 2020)

Tests used:
[1] = system: LC3-II and Beclin-1 in MCF-7, MDA-MB-231, and MDA-MB-436 cells; experiment: Western blot of autophagy markers; format: cell-based, human; conditions: dose- and time-dependent
Experimental: Cells were lysed in radioimmunoprecipitation assay buffer containing 50 mM Tris, pH 8.0, 150 mM NaCl, 0.1% SDS, 0.5% sodium deoxycholate, 1% NP-40, 1 mM DTT, 1 mM NaF, 1 mM sodium orthovanadate, 1 mM phenylmethylsulfonyl fluoride (PMSF; Sigma-Aldrich; Merck KGaA), and 1% protease inhibitors cocktail (EMD Millipore, Billerica, MA, USA). Protein concentration was determined using the Bradford method. Equal amounts of sample (25 µg) were separated by SDS-PAGE (8–12% gels). Electrophoresed proteins were then transferred onto polyvinylidene fluoride membranes (EMD Millipore, Billerica, MA, USA). The membranes were blocked with 5% skimmed milk in Tris-buffered saline at room temperature for 1 h. Following blocking, membranes were incubated overnight at 4°C with primary antibodies and then rinsed with Tris-buffered saline with Tween 20. […]
Figure 2 Eth induces autophagy in BC cells. […] (C): MCF-7, MDA-MB-231, or MDA-MB-436 cells transfected with pQCXIP-GFP-LC3 plasmid were treated with increasing concentrations of Eth for 24 h, and assessed by immunoﬂuorescence analyses. […] (D): MDA-MB-231 or MDA-MB-436 cells transfected with pQCXIP-GFP-LC3 plasmid were treated with Eth (2.0 µM) and/or 3-MA (1 mM) for 24 h, and assessed by immunoﬂuorescence analyses. […] (F): MCF-7, MDA-MB-231, or MDA-MB-436 cells were treated with Eth (3.5 µM, 3.0 µM, or 3.0 µM) and/or 3-MA (1 mM) for 24 h and analyzed by MTT assay. […]

AMPK = AMPK activity assay (CycLex kit) in treated cells; format: cell-based, human; conditions: MCF-7, MDA-MB-231, and MDA-MB-436 cells treated with Eth
Experimental: AMPK kinase activity was assay was performed by AMPK kinase activity kit which was purchased from CycLex Co., Ltd. (Cat#CY-1182). Absorbance was measured at 450 nm.
Next we determined whether Eth modulates the activity of the AMPK kinase. For this purpose, MCF-7, MDA-MB-231, and MDA-MB-436 cells were treated with Eth and incubated for different time periods (1, 6, 12, and 24 h).
Figure 4 Eth is a direct activator of AMPK. (A): MCF-7, MDA-MB-231, or MDA-MB-436 cells were treated with increasing concentrations of Eth for 24 h, and AMPK activity assay was performed. (B): The binding mode of Eth docked into AMPK. (C): The binding mode of Eth docked into AMPK. α subunit is green, β subunit is cyan, γ subunit is magenta and Eth is gold. (D): Details of the binding site of Eth in the ADaM site of AMPK. The main residues involved in drug interactions are shown as labeled green sticks. α subunit is green, β subunit is cyan. The pSER-108 was shown in stick and colored by gold. (E) The interaction pattern of Eth with the residues. (F): The 2D representation of the AMPK crystal structure in complex with Eth. (G): Chemical structure of Eth intermediate and Biotin-labeled Eth. (H): Viability of MCF-7, MDA-MB-231 or MDA-MB-436 cells exposed to Biotin-Eth as determined by MTT assay. […]

`CCOC1c2c(ccc3c2OCO3)-c2ccc3cc4c(cc3c2N1C)OCO4` (centres unmarked) [Eth, Ethoxysanguinarine] was tested, and the “accumulation of LC3-II and Beclin-1” value [1] was “induced the accumulation of LC3-II and Beclin-1” and the AMPK activity (AMPK) was “robust increase in AMPK activity”.
